Laboratory results: paper PMC7347206, “Characterization of a long-term mouse primary liver 3D tissue model recapitulating innate-immune responses and drug-induced liver toxicity” (PLoS ONE, 2020)
pIC50: −log10 of the molar value. Where two headings read alike, the source gives them in different places.

Columns and labels:
[1] = read-out: Mouse Cmax; reported mouse in vivo maximal plasma concentration; 41 (one per compound, as in cell); cited from earlier work
[2] = system: mouse primary hepatocyte 3D liver spheroids; assay: cells; settings: for pIC50: Mus musculus, Hepatocyte; for MOS [3D in vitro IC50 / Human Cmax] 48 h / MOS [3D in vitro IC50 / Human Cmax] 8 days: C57BL/6, mouse
Procedure: To avoid increased evaporation, a humidified lid (Labcyte, USA), filled with PBS, was placed on each plate. […] From day 4 on, 50% of the medium was replaced daily with serum-free maintenance medium (WME with Cell Maintenance Supplement Pack (Thermo Fisher Scientific, USA)).
Compounds were obtained from Sigma-Aldrich if not otherwise stated. […] Toxicity treatment started on day 7 with re-dosing every second day. On the first day of exposure, 50 μl of the cell culture media was removed and 50 μl of fresh cell culture media containing the compound solution was added to the well to achieve the desired concentration. For redosing, 50 μl of cell culture media was replaced with fresh compound-containing cell culture media. […] The dose-response curves were plotted, and IC50 values were calculated using Graph-Pad Prism.
Drug-induced liver injury (DILI) is a major concern in drug development, which often cannot be predicted in vitro due to inherent limitations of 2D hepatocyte cultures, including short-term viability and decreased functionality. […] The spheroids either experienced a single treatment and were analyzed after 48 hours (Fig 3A–3G, 48 h), or they were repeatedly treated every 2 days and analyzed at day 8 (Fig 3A–3G, 8 days). In both cases, ATP content was used as a viability marker.

[3] = read-out: Human Cmax; reported human in vivo Cmax; 48 (one per compound, as in cell); cited from earlier work
[4] = system: bile-salt-export pump (BSEP); assay: Drug-induced cholestasis: BSEP gene expression (qRT-PCR) in coculture spheroids; settings: 24 h
[5] = system: liver coculture spheroids; assay: Cytotoxicity by LDH release or ATP content in the cholestasis study; settings: all treatment conditions (1.25, 2.5, 10 μM), 24 h
TNFα = assay: Crosstalk of parenchymal and non-parenchymal cells: TNFα mRNA in coculture spheroids; type: cell-based, mouse; settings: addition of 50 μM Dexamethasone to LPS; as compared to IL-6
Procedure: (§1) Cytochrome P450 (Cyp450), as well as IL-6 and TNFα gene expression was measured by qRT-PCR.
(§2) Drug-induced liver injuries can be caused by several modes of action, including perturbations of biochemical pathways caused by the interaction of parenchymal and non-parenchymal cells. These complex and dynamic cellular interactions can only be represented in vivo or in coculture models, which include the parenchymal and non-parenchymal cells.

IL-6 = assay: Crosstalk of parenchymal and non-parenchymal cells: IL-6 mRNA in coculture spheroids; type: cell-based, mouse
Procedure: as §1, §2

Cyp3a = Cyp3a inhibition, P450-Glo activity assay in non-induced spheroids; settings: 10 μM Ketoconazole
Cyp3a11 [6] = assay: Cyp450 induction on mRNA level (qRT-PCR) in liver spheroids; type: in vitro ADME, mouse; settings: PCN 50 μM, Pb 100 μM
Procedure: (§3) To analyze the metabolic capacity, spheroids were incubated with different Cyp inducers for 72 hours, starting 7 days or 14 days post seeding and analyzed by qRT-PCR. […] PCN and βNF were dissolved in DMSO as a 1000x stock solution, Pb was dissolved directly in the cell culture media.
(§4) For the biotransformation of endogenous compounds and xenobiotics including drugs, liver cytochromes P450 (Cyp450) play a critical role as they convert substances into more polar products to facilitate the elimination from the body. The major drug-metabolizing Cyp450 in mouse include Cyp1a1, Cyp1a2, Cyp2b10, and Cyp3a11 [34]. To assess their metabolic capacity, spheroids were incubated with well-known Cyp450 inducers for […] and analyzed for Cyp450 induction on RNA level on day 10 and day 17 (Figs 2C and S4). […] Additionally, spheroids were incubated with Phenobarbital (Pb), a known Cyp2b10 and Cyp3a11 inducer.

Cyp2b10 = assay: as above; type: in vitro ADME, mouse; settings: 100 μM Pb
Procedure: as §3, §4

Cyp3a11 [7] = system: Cyp3a11; set-up: method as in PMID 22466549; settings: mouse in vivo; cited from earlier work
Cyp1a1 = assay: Cyp450 induction on mRNA level (qRT-PCR) in liver spheroids; type: in vitro ADME, mouse; settings: 15 μM βNF
Procedure: as §3, §4

Cyp1a2 = assay: as above; type: in vitro ADME, mouse; settings: 15 μM βNF
Procedure: as §3, §4

[8] = system: IL-6 release of Kupffer cells and liver sinusoidal endothelial cells; assay: LPS-induced IL-6 release (ELISA) from liver spheroids; type: cell-based, mouse; settings: LPS for 72 hours, 14 days after production
Procedure: (§5) The activation potential of Kupffer cells and liver sinusoidal endothelial cells was measured by assessing the lipopolysaccharide (LPS)-induced interleukin 6 (IL-6) release. […] was added, and the supernatant was collected after […]. IL-6 concentrations were measured by ELISA (BioLegend, USA). For stellate-cell activation, spheroids were treated with different concentrations of transforming growth factor beta TGFβ (Bio-Techne AG, Switzerland) for 72 hours. Induction of smooth-muscle-α-actin (Acta2) gene expression was measured via quantitative real-time polymerase chain reaction (qRT-PCR), described in the section “gene expression analysis”. For the induction of the major histocompatibility complex class II (MHCII) on LSECs, spheroids were treated with 100 ng ml^-1 tumor-necrosis factor alpha (TNFα; Sigma-Aldrich, Switzerland) for 48 h. H2-Ab1 gene expression was measured via qRT-PCR.
(§6) NPCs are activated upon detection of endotoxins, such as lipopolysaccharides (LPS), which leads to the secretion of certain cytokines by NPCs. To assess the functionality and activation potential of NPCs, monoculture and coculture spheroids were treated with LPS for 72 hours and analyzed for interleukin 6 (IL-6) release (Fig 4C). […] Stellate cells are quiescent in a normal liver but can be activated upon liver damage and are responsible for scar-tissue formation. […]

Cyp3a11 [9] = assay: Crosstalk of parenchymal and non-parenchymal cells: Cyp3a11 mRNA in coculture spheroids ± LPS; settings: LPS alone, 10 μg/ml, 48 h
Procedure: as §1, §2

[10] = system: Acta2 (alpha smooth muscle actin); assay: Stellate-cell activation: Acta2 gene expression (qRT-PCR) in coculture spheroids; type: cell-based, mouse; settings: 72 h
Procedure: as §5
NPCs are activated upon detection of endotoxins, such as lipopolysaccharides (LPS), which leads to the secretion of certain cytokines by NPCs. To assess the functionality and activation potential of NPCs, monoculture and coculture spheroids were treated with LPS for 72 hours and analyzed for interleukin 6 (IL-6) release (Fig 4C). […] Stellate cells are quiescent in a normal liver but can be activated upon liver damage and are responsible for scar-tissue formation. Stimulation with transforming growth factor beta (TGFβ), triggered a dose-dependent induction of Acta2 (alpha smooth muscle actin, αSMA), which is an activation marker for stellate cells (Fig 4D). Low concentrations of TGFβ increased Acta2 induction by 3.5 fold, whereas higher concentrations induced gene expression by 4.7-fold and 8-fold, respectively. The functional characterization of liver sinusoidal endothelial cells was performed by induction of the major histocompatibility complex II (MHC-II), which is constitutively expressed in LSECs but can be further increased by exposure to pro-inflammatory cytokines, such as tumor necrosis factor alpha (TNFα).

H2-Ab1 (MHC-II) = assay: MHC-II induction on LSECs: H2-Ab1 gene expression (qRT-PCR) in coculture spheroids; type: cell-based, mouse; settings: 100 ng ml^-1 TNFα, 48 h
Procedure: as §5, §6

[11] = read-out: 3D in vitro IC50 8 days
[12] = read-out: 3D in vitro IC50 48 h

Molecule: CC(=O)Nc1ccc(O)cc1 [Acetaminophen]
- Cmax [1]: 2220 µM
- pIC50 [2, 11]: 2.56
- Cmax [3]: 136 µM

Molecule: O=C1CC2(CCCC2)CC(=O)N1CCCCN1CCN(c2ncccn2)CC1 [Buspirone]
- MOS [3D in vitro IC50 / Human Cmax] 48 h [2]: 49189
- MOS [3D in vitro IC50 / Human Cmax] 8 days [2]: 20489
- pIC50 [2, 12]: 3.35
- pIC50 [2, 11]: 3.73
- hepatotoxicity class by IC50/Cmax (MOS) ([2]; mouse): non-DILI compounds
- Cmax [3]: 0.009 µM

Molecule: CN(C)CCCN1c2ccccc2Sc2ccc(Cl)cc21 [CPZ, Chlorpromazine]
- inhibition of BSEP expression ([4]; high concentrations of CPZ): 96%
- inhibition of BSEP expression ([4]; low concentrations of CPZ): up to 87%
- cytotoxicity by LDH or ATP [5]: no cytotoxicity

Molecule: O=P1(N(CCCl)CCCl)NCCCO1 (stereo not shown) [Cyclophosphamide]
- Cmax [1]: 77 µM
- pIC50 [2, 12]: 3.71
- pIC50 [2, 11]: 4.88
- hepatotoxicity class by IC50/Cmax (MOS) ([2]; after 48 hours (short-term exposure), cut-off 100): hepatotoxic agents
- Cmax [3]: 96 µM

Molecule: C[C@@H]1C[C@H]2[C@@H]3CCC4=CC(=O)C=C[C@]4(C)[C@@]3(F)[C@@H](O)C[C@]2(C)[C@@]1(O)C(=O)CO [Dexamethasone]
- effect on LPS-induced TNFα gene expression (TNFα): only moderate reduction
- reduction of LPS-induced IL-6 mRNA induction (IL-6; co-administration of 50 μM Dexamethasone with LPS): ~ 50%

Molecule: O=C(O)Cc1ccccc1Nc1c(Cl)cccc1Cl [Diclofenac]
- Cmax [1]: 10 µM
- pIC50 [2, 12]: 3.53
- pIC50 [2, 11]: 4.53
- Cmax [3]: 9.43 µM

Molecule: CC(=O)N1CCN(c2ccc(OCC3COC(Cn4ccnc4)(c4ccc(Cl)cc4Cl)O3)cc2)CC1 (stereo not shown) [Ketoconazole]
- downregulation of Cyp3a activity (Cyp3a): 60%

Molecule: CN(Cc1cnc2nc(N)nc(N)c2n1)c1ccc(C(=O)N[C@@H](CCC(=O)O)C(=O)O)cc1 [Methotrexate]
- Cmax [1]: 43 µM
- reduction in cell viability after a single dosage [2]: only a slight reduction in cell viability
- MOS [3D in vitro IC50 / Human Cmax] 48 h [2]: 84’231
- MOS [3D in vitro IC50 / Human Cmax] 8 days [2]: 44.64
- pIC50 [2, 11]: 3.68
- hepatotoxicity class by IC50/Cmax (MOS) ([2]; mouse): assigned to the correct class

Molecule: CCC1(c2ccccc2)C(=O)NC(=O)NC1=O [Phenobarbital]
- Cyp3a11 mRNA induction compared to the vehicle control (Cyp3a11 [6]; day 10 (treated day 7-10)): 6.2 fold
- Cyp3a11 mRNA induction compared to the vehicle control (Cyp3a11 [6]; day 17 (treated day 14-17)): 3.9 fold
- Cyp2b10 mRNA induction (Cyp2b10; day 10): 1.9 fold
- Cyp2b10 mRNA induction (Cyp2b10; day 17): 2.4 fold

Molecule: CC(=O)[C@H]1[C@H](C#N)C[C@H]2[C@@H]3CC=C4C[C@@H](O)CC[C@]4(C)[C@H]3CC[C@@]21C [Pregnenolone 16α-carbonitrile]
- reduced expression of Cyp3a11 mRNA when administered together with LPS (Cyp3a11 [7]): 25%
- Cyp3a11 mRNA induction compared to the vehicle control (Cyp3a11 [6]; day 10 (treated day 7-10)): 20 fold
- Cyp3a11 mRNA induction compared to the vehicle control (Cyp3a11 [6]; day 17 (treated day 14-17)): 59 fold

Molecule: CC(C)NCC(O)COc1cccc2ccccc12 (stereo not shown) [Propranolol]
- Cmax [3]: 0.2 µM

Molecule: CN(C)[C@@H]1C(O)=C(C(N)=O)C(=O)[C@@]2(O)C(O)=C3C(=O)c4c(O)cccc4[C@@](C)(O)[C@H]3C[C@@H]12 [Tetracycline]
- Cmax [1]: 11 µM
- pIC50 [2, 12]: 3.36
- pIC50 [2, 11]: 4.40
- Cmax [3]: 21 µM

Molecule: Cc1c(C)c2c(c(C)c1O)CCC(C)(COc1ccc(CC3SC(=O)NC3=O)cc1)O2 (stereo not shown) [Troglitazone]
- inhibition of BSEP expression ([4]; 1.25 μM): 10%
- inhibition of BSEP expression ([4]; 2.5 μM): 40%
- inhibition of BSEP expression ([4]; 10 μM): 89%
- cytotoxicity by LDH or ATP [5]: no cytotoxicity

Molecule: O=c1cc(-c2ccccc2)oc2ccc3ccccc3c12 [β-naphthoflavone]
- Cyp1a1 mRNA induction (Cyp1a1; day 10): 90 fold
- Cyp1a1 mRNA induction (Cyp1a1; day 17): 103 fold
- Cyp1a2 mRNA induction (Cyp1a2; day 10): 157 fold
- Cyp1a2 mRNA induction (Cyp1a2; day 17): 59 fold

Molecule: lipopolysaccharide [LPS]
- IL-6 release ([8]; coculture spheroids): 65 ± 11 pg/mL
- IL-6 release ([8]; monoculture spheroids): 2 pg/mL
- Cyp3a11 mRNA induction (Cyp3a11 [9]): did not lead to Cyp3a11 mRNA induction
- IL-6 mRNA expression increase (IL-6; LPS alone, 10 μg/ml, 48 h, coculture spheroids): 6 fold

Molecule: transforming growth factor beta [TGFβ]
- Acta2 induction ([10]; higher concentration of TGFβ (first of two)): 4.7 fold
- Acta2 induction ([10]; higher concentration of TGFβ (second of two)): 8 fold
- Acta2 induction ([10]; low concentrations of TGFβ): 3.5 fold

Molecule: tumor-necrosis factor alpha [TNFα]
- increase of mRNA expression of MHC-II (H2-Ab1) (H2-Ab1 (MHC-II)): 2.3 fold
